# From patent US7030157B2, “Pharmaceutical compositions, kits and methods comprising combinations of estrogen agonists/antagonists, estrogens and progestins” (priority 2001, dated 2006)
# Entries after “also recorded” stand apart in the source; their conditions may differ.
# Legend:
# [1] = test system: OVX-induced bone resorption and bone turnover; assay: Dynamic histomorphometry of the proximal tibial metaphysis in OVX rats; type: in vivo, Sprague-Dawley female rats; settings: daily gavage 28 days, EE 0.03 mg/kg, LAS 0.1 mg/kg
# Description: (§1) Sprague-Dawley female rats at 5.5 months of age were used in this study. Rats underwent either sham-operation or bilateral ovariectomy. Beginning at 1 day post-surgery, the rats were treated (daily gavage) with vehicle, 17α-ethanyl estradiol (EE) alone, lasofoxifene (LAS) alone, or combination of both EE and LAS for 28 days, according to the following protocol.
# (§2) There were 10 rats in each group. All rats received subcutaneous injections of the fluorescent marker, calcein, at 10 mg/kg on days 12 and 2 before necropsy in order to determine dynamic bone changes. After 28 days of treatment, the rats were necropsy, and the following endpoints were determined. • Body weight • Total serum cholesterol (TSC) • Uterine wet weight • Peripheral quantitative computerized tomography (pQCT). A pQCT X-ray machine (Stratec XCT Reasearch M, Norland Medical Systems, Fort Atkinson, Wis.) with version 5.40 was used to scan femurs from this study. A cross sectional slice 1 mm in thickness was taken of the femoral metaphysis approximately 5 mm proximal to the distal end. A voxel size of 0.10 mm was used, with dimensions of 100×100×1000 micometers. Cortical bone was defined and analyzed using contour mode 2 and cortical mode 4. The cortical shell was distinguished from soft tissue with an outer threshold setting of 349 mg/cm^3. Furthermore, cortical bone along the endocortical surface was determined with an inner threshold of 529 mg/cm^3. In order to determine the presence of trabecular bone, peel mode 4 was used. (Sub)Cortical bone was distinguished from cancellous bone with a threshold setting of 655 mg/cm^3. An additional concentric peel was also used to eliminate (sub)cortical bone from any analyses. For trabecular and cortical bone, content, density and area were determined. […] Tibiae were removed upon necropsy and removed of tissue. The proximal portion of the tibia was fixed in 70% ethanol, dehydrated in graded concentrations of ethanol, defatted in acetone, and embedded in methyl methacrylate. Four and ten μm sections were taken to determine several histomorphometric parameters with an Image Analysis System (Osteomeasure, Inc., Atlanta, Ga.). The 10 μm remained unstained while the 4 μm section was stained with modified Masson's Trichrome stain (5,6,7). Statistics
# (§3) Statistics were calculated using StatView 4.0 software (Abacus Concepts, Inc., Berkeley, Calif.). Fisher's PLSD was used to determine the differences between each group. A p value<0.05 was considered a significant difference.
# [2] = test system: uterus of OVX rats; assay: Uterine wet weight in OVX rats
# Description: as §1
# (§4) There were 10 rats in each group. All rats received subcutaneous injections of the fluorescent marker, calcein, at 10 mg/kg on days 12 and 2 before necropsy in order to determine dynamic bone changes. After 28 days of treatment, the rats were necropsy, and the following endpoints were determined. • Body weight • Total serum cholesterol (TSC) • Uterine wet weight • Peripheral quantitative computerized tomography (pQCT). A pQCT X-ray machine (Stratec XCT Reasearch M, Norland Medical Systems, Fort Atkinson, Wis.) with version 5.40 was used to scan femurs from this study. […] Cortical bone was defined and analyzed using contour mode 2 and cortical mode 4. […] Furthermore, cortical bone along the endocortical surface was determined with an inner threshold of 529 mg/cm^3. […] For trabecular and cortical bone, content, density and area were determined. […]
# (§5) Statistics were calculated using StatView 4.0 software (Abacus Concepts, Inc., Berkeley, Calif.). […]
# [3] = Total serum cholesterol (TSC) in OVX rats; type: in vivo, Sprague-Dawley female rats; settings: daily gavage 28 days, EE 0.03 mg/kg, LAS 0.1 mg/kg
# Description: as §1, §4, §5
# [4] = test system: OVX-induced bone loss; assay: pQCT of the distal femur in OVX rats; type: in vivo, Sprague-Dawley female rats; settings: for pQCT cortical content, distal femur / pQCT total density, distal femur: daily gavage 28 days, EE 0.03 mg/kg, LAS 0.1 mg/kg; for OVX-induced bone loss: fully efficacious doses (EE 0.03 mg/kg, LAS 0.1 mg/kg), 28 days
# Description: as §1, §2, §3
# [5] = test system: breast cancer; settings: previously reported; cited from earlier work
# [6] = target: estrogen receptor β (Homo sapiens, UniProt Q92731); settings: previously reported; similar to the binding of estradiol; cited from earlier work
# estrogen receptor β, sequence (Q92731 whole entry): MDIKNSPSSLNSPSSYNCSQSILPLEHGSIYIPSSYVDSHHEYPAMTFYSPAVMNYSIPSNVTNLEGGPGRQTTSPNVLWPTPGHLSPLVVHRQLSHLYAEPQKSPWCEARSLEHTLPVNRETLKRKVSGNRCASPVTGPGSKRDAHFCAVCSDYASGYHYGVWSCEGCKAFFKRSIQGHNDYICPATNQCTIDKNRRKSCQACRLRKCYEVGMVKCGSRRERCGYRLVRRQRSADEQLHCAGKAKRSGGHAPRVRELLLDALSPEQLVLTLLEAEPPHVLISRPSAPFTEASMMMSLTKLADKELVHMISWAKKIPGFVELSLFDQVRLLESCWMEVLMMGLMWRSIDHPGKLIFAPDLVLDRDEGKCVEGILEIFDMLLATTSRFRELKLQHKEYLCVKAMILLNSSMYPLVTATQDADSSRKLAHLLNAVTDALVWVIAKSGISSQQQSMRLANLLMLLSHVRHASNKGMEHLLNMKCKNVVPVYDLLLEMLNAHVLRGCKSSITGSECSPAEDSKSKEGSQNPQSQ
# [7] = test system: uterine cancer cell lines; settings: previously reported; cited from earlier work
# [8] = target: estrogen receptor α (Homo sapiens, UniProt P03372); settings: previously reported; similar to the binding of estradiol; cited from earlier work
# estrogen receptor α, sequence (P03372 whole entry): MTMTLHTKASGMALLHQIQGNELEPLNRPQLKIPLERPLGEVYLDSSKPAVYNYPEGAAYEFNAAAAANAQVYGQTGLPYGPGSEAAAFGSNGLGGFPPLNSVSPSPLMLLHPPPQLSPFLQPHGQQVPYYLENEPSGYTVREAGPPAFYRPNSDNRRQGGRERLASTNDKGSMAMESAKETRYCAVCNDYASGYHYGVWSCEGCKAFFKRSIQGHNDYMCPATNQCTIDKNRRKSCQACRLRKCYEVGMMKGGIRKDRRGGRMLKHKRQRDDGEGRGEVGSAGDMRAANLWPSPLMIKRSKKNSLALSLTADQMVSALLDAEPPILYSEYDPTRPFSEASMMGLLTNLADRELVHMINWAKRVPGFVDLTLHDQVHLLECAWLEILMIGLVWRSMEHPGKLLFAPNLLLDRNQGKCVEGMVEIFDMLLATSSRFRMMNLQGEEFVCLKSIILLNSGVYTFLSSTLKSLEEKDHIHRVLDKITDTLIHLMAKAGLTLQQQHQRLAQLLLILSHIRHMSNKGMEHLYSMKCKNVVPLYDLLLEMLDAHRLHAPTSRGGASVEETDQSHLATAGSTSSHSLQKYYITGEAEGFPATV
SMILES,bone formation rate (BFR/BS) [1],mineral apposition rate (MAR) [1],mineralizing surface (MS/BS) [1],osteoclast number (Oc.N/BS) [1],osteoclast surface (Oc.S/BS) [1],"uterine wet weight ([2]; daily gavage 28 days, EE 0.03 mg/kg, LAS 0.1 mg/kg)",total serum cholesterol (TSC) [3],"pQCT cortical content, distal femur [4]","pQCT total density, distal femur [4]",OVX-induced bone loss [4],proliferation of breast cancer in vivo [5],"effect of LAS on the uterine effects of EE on co-administration ([2]; EE 0.03 mg/kg + LAS 0.1 mg/kg, 28 days, tartrate salt)",total serum cholesterol (TSC) ([3]; tartrate salt),binding to estrogen receptor β [6],proliferation of uterine cancer cell lines in vitro [7],binding to estrogen receptor α [8]
"C#C[C@]1(O)CC[C@H]2[C@@H]3CCc4cc(O)ccc4[C@H]3CC[C@@]21C [EE, 17α-ethanyl estradiol, reference compound]",completely prevented these changes,completely prevented these changes,completely prevented these changes,completely prevented these changes,completely prevented these changes,maintained the uterine wet weight at the level of sham controls,completely prevented this increase,completely prevented the OVX-induced decrease,completely prevented the OVX-induced decrease,completely prevented OVX-induced bone loss,,,,,,
"O=C(O)C(O)C(O)C(=O)O.Oc1ccc2c(c1)CC[C@H](c1ccccc1)[C@@H]2c1ccc(OCCN2CCCC2)cc1 [LAS, (−)-cis-6-phenyl-5-[4-(2-pyrrolidin-1-yl-ethoxy)-phenyl]-5,6,7,8-tetrahydro-naphthalene-2-ol, tartrate salt]",completely prevented these changes,completely prevented these changes,completely prevented these changes,completely prevented these changes,completely prevented these changes,,,completely prevented the OVX-induced decrease,completely prevented the OVX-induced decrease,completely prevented OVX-induced bone loss,antagonizes the proliferation,blocked the agonistic effects of EE in the uterus of OVX rats; also recorded: antagonized the uterine hypertrophy effects induced by EE,prevented the OVX-induced increase in TSC; also recorded: significantly decreased TSC to a level below both sham controls and rats treated with EE,bound selectively and with high affinity,antagonizes the proliferation,bound selectively and with high affinity
